# Data published in ChEMBL document CHEMBL1140957, “GRIND-based 3D-QSAR to predict inhibitory activity for similar enzymes, OSC and SHC” (Eur J Med Chem, 2008).
# “And” between values parts separate entries of the source, which are not always exact repeats. Equal entries are not always repeated.
# Target: T1, Lanosterol synthase (Homo sapiens, UniProt P48449)
# T1 sequence (P48449 whole entry): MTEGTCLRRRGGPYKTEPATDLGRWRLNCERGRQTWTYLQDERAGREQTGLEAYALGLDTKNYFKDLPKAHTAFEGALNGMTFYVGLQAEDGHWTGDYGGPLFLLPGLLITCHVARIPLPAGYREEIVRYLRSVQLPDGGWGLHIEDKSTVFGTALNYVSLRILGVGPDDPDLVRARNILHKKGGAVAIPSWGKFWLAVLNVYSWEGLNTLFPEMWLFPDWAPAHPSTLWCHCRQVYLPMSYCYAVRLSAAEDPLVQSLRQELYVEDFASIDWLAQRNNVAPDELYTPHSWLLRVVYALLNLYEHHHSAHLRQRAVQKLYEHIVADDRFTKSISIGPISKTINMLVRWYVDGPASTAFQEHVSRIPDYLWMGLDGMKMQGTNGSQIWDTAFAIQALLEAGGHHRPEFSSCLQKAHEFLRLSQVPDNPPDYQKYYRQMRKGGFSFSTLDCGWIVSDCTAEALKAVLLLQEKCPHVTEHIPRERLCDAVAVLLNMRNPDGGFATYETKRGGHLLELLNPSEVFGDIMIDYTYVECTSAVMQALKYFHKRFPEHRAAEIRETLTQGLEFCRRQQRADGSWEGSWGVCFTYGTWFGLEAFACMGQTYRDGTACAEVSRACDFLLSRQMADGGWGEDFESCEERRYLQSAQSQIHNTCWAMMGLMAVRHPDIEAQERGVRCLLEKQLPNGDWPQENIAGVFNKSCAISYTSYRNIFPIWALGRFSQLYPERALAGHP
# Assay: Inhibition of oxidosqualene cyclase
row,IC50 [nM],Compound
1,6.46,C=CCN(C[C@H]1C[C@@H]1COc1ccc(C(=O)c2ccc(Br)cc2)cc1)C1CC1
2,28.8,CN(CCCO)CCCCCCOc1ccc(C(=O)c2ccc(Br)cc2)cc1
3,19.5,C=CCN(C)CCCCCCOc1ccc2c(c1)c(C)nn2C

# Target: not listed separately
# Assay: Inhibition of squalene-hopene cyclase
row,pIC50,Compound
1,6.12,CN(CCCCCCOC1CCN(C(=O)c2ccc(F)cc2)CC1)C1CC1
2,7.3,CN(C[C@H]1C[C@@H]1COc1ccc(C(=O)c2ccc(Br)cc2)c(F)c1)C1CC1
3,7.42,CN(CCCCCCOc1ccc(C(=O)c2ccc(Br)cc2)c(F)c1)C1CC1
4,7.12,C=CCN(C)CCCCCCOc1ccc2c(-c3ccc(Br)cc3)noc2c1
5,7.02,C=CCN(C)CCCCCCOc1ccc(C(=O)c2ccc(Br)cc2)cc1
6,6.55,CN(CCCO)CCCCCCOc1ccc(C(=O)c2ccc(Br)cc2)cc1
7,6.54 and 6.48,C=CCN(C)CCCCCCOc1ccc2c(c1)c(C)nn2C
8,7.21,CN(C[C@H]1C[C@@H]1COc1ccc(C(=O)c2ccc(Br)cc2)cc1)C1CC1
9,7.4,C=CCN(C)C/C=C/COc1ccc(C(=O)c2ccc(Br)cc2)cc1
10,6.89,C=CCN(C)C/C=C/COc1ccc(-c2nsc3cc(Br)ccc23)cc1
11,7.12,C=CCN(C)C/C=C/COc1ccc2c(-c3ccc(Br)cc3)csc2c1
12,7.31,C=CCN(C)C/C=C/COc1ccc2c(-c3ccc(Br)cc3)noc2c1
13,5.92,C=CCN(C)CCCCCCOC1CCN(C(=O)c2ccc(F)cc2)CC1
14,6.76,C=CCN(C)CCCCCCOc1ccc2c(c1)CON=C2c1ccc(Br)cc1
